Results published in article PMC6934184, “Selective DNA-PKcs inhibition extends the therapeutic index of localized radiotherapy and chemotherapy” (The Journal of Clinical Investigation, 2019).

Target: T1, PLK1 (Homo sapiens, UniProt P53350)
T1 construct: purchased Thermo Fisher Scientific (Life Technologies) SelectScreen
Assay: SelectScreen Z'LYTE
Format: biochemical
How it was run: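 SelectScreen broad panel; activity (Z'LYTE, Adapta) plus binding formats. ATP: Km app for CSF1R Z'LYTE; 10 for CAMK1 Adapta. Readout = % per kinase.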

T1 sequence (P53350 whole entry): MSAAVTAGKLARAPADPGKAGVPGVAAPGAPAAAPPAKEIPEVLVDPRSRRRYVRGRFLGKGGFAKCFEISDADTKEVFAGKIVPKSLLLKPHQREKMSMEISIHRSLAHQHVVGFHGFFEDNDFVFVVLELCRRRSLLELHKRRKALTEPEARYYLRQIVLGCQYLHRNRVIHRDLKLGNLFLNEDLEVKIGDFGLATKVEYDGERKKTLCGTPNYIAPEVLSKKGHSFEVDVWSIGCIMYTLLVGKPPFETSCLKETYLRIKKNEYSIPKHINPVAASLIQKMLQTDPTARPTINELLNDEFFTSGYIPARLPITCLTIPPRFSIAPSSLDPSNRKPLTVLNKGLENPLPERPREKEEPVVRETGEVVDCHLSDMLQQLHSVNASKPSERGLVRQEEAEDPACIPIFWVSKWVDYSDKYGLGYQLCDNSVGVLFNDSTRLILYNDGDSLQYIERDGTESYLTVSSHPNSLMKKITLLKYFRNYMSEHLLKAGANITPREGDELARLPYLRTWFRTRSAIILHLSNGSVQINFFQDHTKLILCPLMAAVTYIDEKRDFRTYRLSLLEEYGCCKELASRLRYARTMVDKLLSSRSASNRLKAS

SMILES: CN(C(=O)CN1CCOCC1)c1ccc2sc3c(-c4cccc5c(=O)cc(N6CC7CCC(C6)O7)oc45)cccc3c2c1 [NU5455]
- inhibition at 1 µM: 9.2%
